Results: ChEMBL document CHEMBL1201862, “PubChem BioAssay data set” (2004)
“And” between values parts separate entries of the source, which are not always exact repeats. Identical values can stand only once.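 Interpolation was linear, between the two tested concentrations surrounding the appropriate level; five concentrations were tested over 48 hours in 96-well plates. Abbreviation: GI50, concentration required for 50% inhibition of growth.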 The source made the active and inactive calls. No stated cut-off is given here; in the data, active = GI50 up to about 1.1 µM and inactive = higher.

Experiments:
Assay in all cases: NCI tumour cell line growth inhibition, 48 h
MDA-MB-231 = test system: MDA-MB-231
SF-268 = test system: SF-268
TK-10 = test system: TK-10
A498 = test system: A498
SK-MEL-5 = test system: SK-MEL-5
T47D = test system: T47D
SNB-75 = test system: SNB-75
SNB-19 = test system: SNB-19
RPMI-8226 = test system: RPMI-8226
SK-MEL-2 = test system: SK-MEL-2
NCI-H23 = test system: NCI-H23
NCI/ADR-RES = test system: NCI/ADR-RES
CAKI-1 = test system: CAKI-1
MOLT-4 = test system: MOLT-4
OVCAR-5 = test system: OVCAR-5
K562 = test system: K562
DU-145 = test system: DU-145
UACC-257 = test system: UACC-257
OVCAR-3 = test system: OVCAR-3
HL-60 = test system: HL-60
RXF 393 = test system: RXF 393
UO-31 = test system: UO-31
PC-3 = test system: PC-3
BT-549 = test system: BT-549
Malme-3M = test system: Malme-3M
HCC 2998 = test system: HCC 2998
HOP-62 = test system: HOP-62
LOX IMVI = test system: LOX IMVI
COLO 205 = test system: COLO 205
SK-MEL-28 = test system: SK-MEL-28
HCT-116 = test system: HCT-116
U-251 = test system: U-251
SN12C = test system: SN12C
CCRF-CEM = test system: CCRF-CEM
OVCAR-8 = test system: OVCAR-8
HOP-92 = test system: HOP-92
MCF7 = test system: MCF7
A549 = test system: A549
SR = test system: SR
MDA-MB-435 = test system: MDA-MB-435
NCI-H460 = test system: NCI-H460
M14 = test system: M14
IGROV-1 = test system: IGROV-1
NCI-H522 = test system: NCI-H522
EKVX = test system: EKVX
786-0 = test system: 786-0
SF-295 = test system: SF-295
MDA-N = test system: MDA-N
SF-539 = test system: SF-539
UACC-62 = test system: UACC-62
KM12 = test system: KM12
HT-29 = test system: HT-29
ACHN = test system: ACHN
SW-620 = test system: SW-620
NCI-H226 = test system: NCI-H226
OVCAR-4 = test system: OVCAR-4
Hs-578T = test system: Hs-578T
SK-OV-3 = test system: SK-OV-3
HCT-15 = test system: HCT-15

Measured: GI50

CC(C)=CCC/C(C)=C\CCC1(C)OC(=O)C2CC21 (centres undefined)
inactive: MDA-MB-231 50.5 µM | SF-268 > 100 µM | TK-10 56.6 µM | A498 98.9 µM | SK-MEL-5 43.6 µM and 41.1 µM | T47D > 100 µM and 63.4 µM | SNB-75 55.7 µM | SNB-19 > 100 µM and 71.1 µM | RPMI-8226 28.3 µM and 19.7 µM | SK-MEL-2 45.6 µM | NCI-H23 28.7 µM and 40.4 µM | NCI/ADR-RES 42.4 µM and 33.3 µM | CAKI-1 23.8 µM and 32.3 µM | MOLT-4 18.1 µM and 22.7 µM | OVCAR-5 > 100 µM | K562 22.4 µM and 17.2 µM | DU-145 92.7 µM | UACC-257 73.6 µM and 47.3 µM | OVCAR-3 51.5 µM and 27.5 µM | HL-60 18.5 µM and 12.3 µM | RXF 393 40.6 µM | UO-31 44.4 µM and 37.2 µM | PC-3 25.9 µM and 35.4 µM | BT-549 31.8 µM and 34 µM | Malme-3M 80.2 µM | HCC 2998 21.1 µM and 36.1 µM | HOP-62 > 100 µM and 53.5 µM | LOX IMVI 15 µM and 27.7 µM | COLO 205 49.1 µM and 59.8 µM

COc1nc2c(c(=O)[nH]1)N=C(c1ccc([N+](=O)[O-])cc1)CC(c1ccccc1)N2 (centres undefined)
inactive: MDA-MB-231 > 100 µM | SK-MEL-28 94.8 µM | A498 > 100 µM | SK-MEL-5 49.7 µM | SNB-75 32.8 µM | SNB-19 > 100 µM | HCT-116 34.5 µM | RPMI-8226 44.1 µM | SK-MEL-2 > 100 µM | U-251 > 100 µM | SN12C > 100 µM | NCI-H23 69.8 µM | CCRF-CEM 37.9 µM | OVCAR-8 > 100 µM | NCI/ADR-RES > 100 µM | HOP-92 84.3 µM | CAKI-1 > 100 µM | MOLT-4 54.3 µM | MCF7 57.7 µM | OVCAR-5 > 100 µM | K562 58.2 µM | A549 83.4 µM | DU-145 > 100 µM | UACC-257 > 100 µM | SR 99.1 µM | OVCAR-3 > 100 µM | MDA-MB-435 > 100 µM | NCI-H460 73.6 µM | HL-60 16 µM | M14 > 100 µM | IGROV-1 > 100 µM | NCI-H522 66.4 µM | RXF 393 94.6 µM | UO-31 62.4 µM | EKVX 95.9 µM | 786-0 > 100 µM | PC-3 84.3 µM | SF-295 > 100 µM | MDA-N > 100 µM | SF-539 > 100 µM | UACC-62 59.2 µM | BT-549 > 100 µM | Malme-3M > 100 µM | HCC 2998 > 100 µM | KM12 70.5 µM | HT-29 > 100 µM | ACHN 76.4 µM | HOP-62 > 100 µM | SW-620 > 100 µM | NCI-H226 > 100 µM | LOX IMVI 38.4 µM | COLO 205 > 100 µM | OVCAR-4 62.8 µM

CCCCCCCCCCCCCCCCCCOCC(CCP(=O)(CP(=O)(O)O)Oc1ccccc1)OCCCCCCCCCCCCCCCCCC (centres undefined)
> 100 µM: HCT-15
inactive: MDA-MB-231 > 100 µM | SF-268 > 100 µM | TK-10 > 100 µM | SK-MEL-28 > 100 µM | A498 > 100 µM | SK-MEL-5 > 100 µM | T47D > 100 µM | SNB-75 > 100 µM | SNB-19 > 100 µM | HCT-116 > 100 µM | RPMI-8226 > 100 µM | Hs-578T > 100 µM | U-251 > 100 µM | SN12C > 100 µM | NCI-H23 > 100 µM | CCRF-CEM > 100 µM | OVCAR-8 > 100 µM | NCI/ADR-RES > 100 µM | SK-OV-3 > 100 µM | HOP-92 > 100 µM | CAKI-1 > 100 µM | MOLT-4 > 100 µM | MCF7 > 100 µM | OVCAR-5 > 100 µM | K562 > 100 µM | A549 > 100 µM | DU-145 > 100 µM | UACC-257 > 100 µM | SR > 100 µM | OVCAR-3 > 100 µM | MDA-MB-435 > 100 µM | NCI-H460 > 100 µM | HL-60 > 100 µM | M14 > 100 µM | IGROV-1 > 100 µM | NCI-H522 > 100 µM | RXF 393 > 100 µM | EKVX > 100 µM | 786-0 > 100 µM | PC-3 > 100 µM | SF-295 > 100 µM | MDA-N > 100 µM | SF-539 > 100 µM | UACC-62 > 100 µM | Malme-3M > 100 µM | HCC 2998 > 100 µM | KM12 > 100 µM | HT-29 > 100 µM | ACHN > 100 µM | HOP-62 > 100 µM | SW-620 > 100 µM | NCI-H226 > 100 µM | LOX IMVI > 100 µM | COLO 205 > 100 µM | OVCAR-4 > 100 µM

CC(=O)/C(=C/n1c(=S)sc2ccccc21)C(=O)Nc1ccccc1C
inactive: MDA-MB-231 > 100 µM | SF-268 > 100 µM | TK-10 > 100 µM | SK-MEL-28 > 100 µM | A498 > 100 µM | SK-MEL-5 39.7 µM | T47D 40.9 µM | SNB-75 > 100 µM | SNB-19 > 100 µM | HCT-116 > 100 µM | SK-MEL-2 > 100 µM | U-251 > 100 µM | SN12C > 100 µM | NCI-H23 > 100 µM | OVCAR-8 > 100 µM | NCI/ADR-RES > 100 µM | SK-OV-3 > 100 µM | HOP-92 41.1 µM | CAKI-1 48 µM | MOLT-4 > 100 µM | MCF7 > 100 µM | OVCAR-5 > 100 µM | A549 > 100 µM | DU-145 > 100 µM | UACC-257 > 100 µM | OVCAR-3 59.4 µM | MDA-MB-435 > 100 µM | NCI-H460 > 100 µM | HL-60 31.6 µM | M14 > 100 µM | IGROV-1 59.8 µM | RXF 393 > 100 µM | UO-31 79.6 µM | EKVX > 100 µM | 786-0 > 100 µM | SF-295 > 100 µM | MDA-N > 100 µM | SF-539 > 100 µM | UACC-62 > 100 µM | BT-549 > 100 µM | HCC 2998 > 100 µM | KM12 > 100 µM | HT-29 > 100 µM | ACHN > 100 µM | HOP-62 > 100 µM | SW-620 > 100 µM | NCI-H226 31.1 µM | LOX IMVI > 100 µM | COLO 205 > 100 µM | OVCAR-4 > 100 µM
> 100 µM: HCT-15
